In patent US20230183237A1, “COMPETITIVE AND NONCOMPETITIVE INHIBITORS OF THE MUSCARINIC ACETYLCHOLINE RECEPTOR M5” (Vanderbilt University, priority 2020, published 2023) one finds IC50 data, which are given here for 30 compounds.

Molecules are shown by their SMILES.

The target in the first test is T1, hM5 (Homo sapiens, UniProt P08912).
T1 construct: expressed in transfected cells
T1 sequence (P08912 1-532): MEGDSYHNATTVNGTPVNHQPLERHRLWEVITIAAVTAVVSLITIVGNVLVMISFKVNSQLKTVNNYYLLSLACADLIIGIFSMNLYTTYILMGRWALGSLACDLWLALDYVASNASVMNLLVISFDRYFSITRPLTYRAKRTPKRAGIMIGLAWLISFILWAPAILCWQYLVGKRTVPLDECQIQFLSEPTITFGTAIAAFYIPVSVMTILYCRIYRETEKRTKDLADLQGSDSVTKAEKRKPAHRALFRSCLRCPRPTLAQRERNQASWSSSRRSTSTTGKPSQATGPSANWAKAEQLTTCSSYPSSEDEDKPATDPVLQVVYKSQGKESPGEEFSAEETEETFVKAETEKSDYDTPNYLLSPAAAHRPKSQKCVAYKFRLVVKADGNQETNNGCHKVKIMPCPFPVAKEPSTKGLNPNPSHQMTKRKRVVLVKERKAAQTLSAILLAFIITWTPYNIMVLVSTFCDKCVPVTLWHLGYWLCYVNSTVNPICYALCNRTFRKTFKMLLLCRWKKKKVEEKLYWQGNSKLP
The test is described as follows: Calcium mobilization concentration-response (IC50 vs EC80 acetylcholine), CHO hM5. The class given is cell-based.
Settings: not given
In outline:
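CHO cells stably expressing hM5, dye-loaded, in HBSS/20 mM HEPES/2.5 mM probenecid, pH 7.4. Compounds were pre-incubated 140 s before an EC80 acetylcholine challenge, with calcium flux read kinetically.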
(A change in cytosolic calcium serves as a functional read-out for many receptors and channels.)
For `Cc1cc2ncnn2cc1C1=CC2CCC(C1)N2S(=O)(=O)c1ccc2c(c1)CCO2` (stereo not drawn) [Compound 190, 6-(8-((2,3-dihydrobenzofuran-5-yl)sulfonyl)-8-azabicyclo[3.2.1]oct-2-en-3-yl)-7-methyl-[1,2,4]triazolo[1,5-a]pyridine], the IC50 was more than 10000 nM.
For `Cc1cc2ncnn2cc1C1CC2CCC(C1)N2S(=O)(=O)c1cnn(C)c1C` (stereo not drawn) [Compound 191, 6-(8-((1,5-dimethyl-1H-pyrazol-4-yl)sulfonyl)-8-azabicyclo[3.2.1]octan-3-yl)-7-methyl-[1,2,4]triazolo[1,5-a]pyridine], the IC50 was more than 10000 nM.
On to `Cc1cc2ncnn2cc1C1CC2CCC(C1)N2S(=O)(=O)c1cnn2c1CCC2` (stereo not drawn) [Compound 193, 6-(8-((5,6-dihydro-4H-pyrrolo[1,2-b]pyrazol-3-yl)sulfonyl)-8-azabicyclo[3.2.1]octan-3-yl)-7-methyl-[1,2,4]triazolo[1,5-a]pyridine], for which the IC50 was 1600 nM.

The test is the same for the next values; noted with them: CELL LINE hM5; calcium mobilization, EC80 acetylcholine addition; read-out: IC50.
On to `Cc1cc2ncnn2nc1C1CCN(S(=O)(=O)c2cnn(C)c2C)CC1` [Compound 165, 6-(1-((1,5-dimethyl-1H-pyrazol-4-yl)sulfonyl)piperidin-4-yl)-7-methyl-[1,2,4]triazolo[1,5-b]pyridazine], for which the IC50 was determined as 60 nM.
The same measure, in the same setting: next, `Cc1cc2ncnn2nc1C1CCN(S(=O)(=O)c2ccc3c(c2)N(C)CCO3)CC1` [Compound 166, 4-methyl-6-((4-(7-methyl-[1,2,4]triazolo[1,5-b]pyridazin-6-yl)piperidin-1-yl)sulfonyl)-3,4-dihydro-2H-benzo[b][1,4]oxazine]: 1600 nM.
Same read-out and setting: next, `Cc1cc2ncnn2nc1C1=CCN(S(=O)(=O)c2ccc3c(c2)CCO3)CC1` [Compound 167, 6-(1-((2,3-dihydrobenzofuran-5-yl)sulfonyl)-1,2,3,6-tetrahydropyridin-4-yl)-7-methyl-[1,2,4]triazolo[1,5-b]pyridazine]: more than 10000 nM; `Cc1cc2ncnn2cc1C1CCN(S(=O)(=O)c2cccc3nonc23)CC1` [Compound 168, 4-((4-(7-methyl-[1,2,4]triazolo[1,5-a]pyridin-6-yl)piperidin-1-yl)sulfonyl)benzo[c][1,2,5]oxadiazole]: 821 nM.
Same read-out and setting: the result for `Cc1cc2ncnn2nc1C1=CCN(S(=O)(=O)c2cnn(C)c2C)CC1` [Compound 169, 6-(1-((1,5-dimethyl-1H-pyrazol-4-yl)sulfonyl)-1,2,3,6-tetrahydropyridin-4-yl)-7-methyl-[1,2,4]triazolo[1,5-b]pyridazine] reads 974 nM; that for `Cc1cc2ncnn2nc1C1=CCN(S(=O)(=O)c2ccc3c(c2)N(C)CCO3)CC1` [Compound 170, 4-methyl-6-((4-(7-methyl-[1,2,4]triazolo[1,5-b]pyridazin-6-yl)-3,6-dihydropyridin-1(2H)-yl)sulfonyl)-3,4-dihydro-H-benzo[b][1,4]oxazine], more than 10000 nM; that for `Cc1cc2ncnn2cc1C1(F)CCN(S(=O)(=O)c2cnn(C)c2C)CC1` [Compound 173, 6-(1-((1,5-dimethyl-1H-pyrazol-4-yl)sulfonyl)-4-fluoropiperidin-4-yl)-7-methyl-[1,2,4]triazolo[1,5-a]pyridine], 82 nM.
On to `Cc1cc2ncnn2cc1C1CCN(S(=O)(=O)c2ccc3c(cnn3C)c2)CC1` [Compound 175, 7-methyl-6-(1-((1-methyl-1H-indazol-5-yl)sulfonyl)piperidin-4-yl)-[1,2,4]triazoto[1,5-a]pyridine], for which the IC50 is more than 10000 nM.
On the same count and under the same terms, the result for `Cc1cc2ncnn2nc1C1CCN(S(=O)(=O)c2cnn(C(F)F)c2C)CC1` [Compound 176, 6-(1-((1-(difluoromethyl)-5-methyl-1H-pyrazol-4-yl)sulfonyl)piperidin-4-yl)-7-methyl-[1,2,4]triazolo[1,5-b]pyridazine] reads more than 10000 nM; that for `Cc1cc2ncnn2nc1C1CCN(S(=O)(=O)c2cnn(C)c2C(F)(F)F)CC1` [Compound 177, 7-methyl-6-(1-((1-methyl-5-(trifluoromethyl)-1H-pyrazol-4-yl)sulfonyl)piperidin-4-yl)-[1,2,4]triazolo[1,5-b]pyridazine], more than 10000 nM; that for `Cc1cc2ncnn2nc1C1CCN(S(=O)(=O)c2c(C)nn(C)c2Cl)CC1` [Compound 179, 6-(1-((5-chloro-1,3-dimethyl-1H-pyrazol-4-yl)sulfonyl)piperidin-4-yl)-7-methyl-[1,2,4]triazolo[1,5-b]pyridazine], 66 nM.
Same read-out and setting: the result for `Cc1cc2ncnn2nc1C1CCN(S(=O)(=O)c2c(C)n[nH]c2C)CC1` [Compound 180, 6-(1-((3,5-dimethyl-1H-pyrazol-4-yl)sulfonyl)piperidin-4-yl)-7-methyl-[1,2,4]triazolo[1,5-b]pyridazine] reads more than 10000 nM; that for `Cc1cc2ncnn2nc1C1CCN(S(=O)(=O)c2cc3c(cc2F)OCC3)CC1` [Compound 181, 6-(1-((6-fluoro-2,3-dihydrobenzofuran-5-yl)sulfonyl)piperidin-4-yl)-7-methyl-[1,2,4]triazolo[1,5-b]pyridazine], more than 10000 nM.
For the compound `Cc1cc2ncnn2nc1C1CCN(S(=O)(=O)c2cn(C)nc2C)CC1` [Compound 182, 6-(1-((1,3-dimethyl-1H-pyrazol-4-yl)sulfonyl)piperidin-4-yl)-7-methyl-[1,2,4]triazolo[1,5-b]pyridazine], the IC50 is more than 10000 nM.
Still for that read-out and setting: the result for `Cc1cc2c(cc1S(=O)(=O)N1CCC(c3nn4ncnc4cc3C)CC1)OCO2` [Compound 183, 7-methyl-6-(1-((6-methylbenzo[d][1,3]dioxol-5-yl)sulfonyl)piperidin-4-yl)-[1,2,4]triazolo[1,5-b]pyridazine] reads more than 10000 nM.
For the compound `Cc1cc2ncnn2nc1C1CCN(S(=O)(=O)c2ccc3c(c2)OCCO3)CC1` [Compound 184, 6-(1-((2,3-dihydrobenzo[b][1,4]dioxin-6-yl)sulfonyl)piperidin-4-yl)-7-methyl-[1,2,4]triazolo[1,5-b]pyridazine], the IC50 was more than 10000 nM.
On the same count and under the same terms, the result for `Cc1cc2ncnn2nc1C1CCN(S(=O)(=O)c2ccc3ncsc3c2)CC1` [Compound 185, 6-((4-(7-methyl-[1,2,4]triazolo[1,5-b]pyridazin-6-yl)piperidin-1-yl)sulfonyl)benzo[d]thiazole] reads more than 10000 nM.
The same measure, in the same setting: the result for `COc1ccc(S(=O)(=O)N2CCC(c3nn4ncnc4cc3C)CC2)c(C)c1` [Compound 186, 6-(1-((4-methoxy-2-methylphenyl)sulfonyl)piperidin-4-yl)-7-methyl-[1,2,4]triazolo[1,5-b]pyridazine] reads more than 10000 nM; that for `Cc1cc2ncnn2nc1C1CCN(S(=O)(=O)c2cnn3c2CCC3)CC1` [Compound 187, 6-(1-((5,6-dihydro-4H-pyrrolo[1,2-b]pyrazol-3-yl)sulfonyl)piperidin-4-yl)-7-methyl-[1,2,4]triazolo[1,5-b]pyridazine], 23 nM.
In the case of `Cc1cc2ncnn2cc1C1CCN(S(=O)(=O)c2ccc3ncn(C)c3c2)CC1` [Compound 188, 7-methyl-6-(1-((1-methyl-1H-benzo[d]imidazol-6-yl)sulfonyl)piperidin-4-yl)-[1,2,4]triazolo[1,5-a]pyridine], the IC50 was found to be 105 nM.
With `Cc1cc2ncnn2cc1C1CCN(S(=O)(=O)c2ccc3c(c2)ncn3C)CC1` [Compound 189, 7-methyl-6-(1-((1-methyl-1H-benzo[d]imidazol-5-yl)sulfonyl)piperidin-4-yl)-[1,2,4]triazolo[1,5-a]pyridine], the IC50 is more than 10000 nM.
Regarding `CCc1cc2ncnn2cc1C1=CCN(S(=O)(=O)c2cnn(C)c2C)CC1` [Compound 194, 6-(1-((1,5-dimethyl-1H-pyrazol-4-yl)sulfonyl)-1,2,3,6-tetrahydropyridin-4-yl)-7-ethyl-[1,2,4]triazolo[1,5-a]pyridine], the IC50 is 55 nM.
With `O=S(=O)(c1cnn2c1CCC2)N1CC=C(c2cc3ncnn3cc2Cl)CC1` [Compound 195, 6-chloro-7-(1-((5,6-dihydro-4H-pyrrolo[1,2-b]pyrazol-3-yl)sulfonyl)-1,2,3,6-tetrahydropyridin-4-yl)-[1,2,4]triazolo[1,5-a]pyridine], the IC50 was 65 nM.
Still for that read-out and setting: next, `O=S(=O)(c1cnn2c1CCC2)N1CC=C(c2cn3ncnc3cc2Cl)CC1` [Compound 196, 7-chloro-6-(1-((5,6-dihydro-4H-pyrrolo[1,2-b]pyrazol-3-yl)sulfonyl)-1,2,3,6-tetrahydropyridin-4-yl)-[1,2,4]triazolo[1,5-a]pyridine]: 6.1 nM.
The same measure, in the same setting: the result for `Cc1c(S(=O)(=O)N2CCC(c3ccc4ncnn4c3C)CC2)cnn1C` [Compound 198, 6-(1-((1,5-dimethyl-1H-pyrazol-4-yl)sulfonyl)piperidin-4-yl)-5-methyl-[1,2,4]triazolo[1,5-a]pyridine] reads more than 10000 nM; that for `Cc1cc(C2CCN(S(=O)(=O)c3cnn(C)c3C)CC2)cn2ncnc12` [Compound 199, 6-(1-((1,5-dimethyl-1H-pyrazol-4-yl)sulfonyl)piperidin-4-yl)-8-methyl-[1,2,4]triazolo[1,5-a]pyridine], more than 10000 nM; that for `Cc1nc2cc(C)c(C3CCN(S(=O)(=O)c4cnn(C)c4C)CC3)cn2n1` [Compound 200, 6-(1-((1,5-dimethyl-1H-pyrazol-4-yl)sulfonyl)piperidin-4-yl)-2,7-dimethyl-[1,2,4]triazolo[1,5-a]pyridine], 899 nM.

As a reminder, the IC50 is the concentration needed to halve the response being measured.
